# Measured values published in ChEMBL document CHEMBL3286106, “Design and synthesis of 6-oxo-1,4,5,6-tetrahydropyrimidine-5-carboxylate derivatives as neuraminidase inhibitors” (Eur J Med Chem, 2014).
# pIC50: −log10 of the molar value.
# Key:
# [1] = molecular target: Neuraminidase (Influenza A virus, UniProt B4URF0); experiment: Inhibition of Influenza A H1N1 virus neuraminidase after 1 hr by spectrofluorimetry using 2-(4-meythylumbelliferyl)-alpha-D-acetylneuramic acid as substrate
# [2] = molecular target: Neuraminidase (Influenza A virus) (UniProt B4URF0); experiment: Inhibition of Influenza A H1N1 virus neuraminidase at 200 uM after 1 hr by spectrofluorimetry using 2-(4-meythylumbelliferyl)-alpha-D-acetylneuramic acid as substrate
# Neuraminidase (Influenza A virus), sequence (B4URF0 as listed by the source): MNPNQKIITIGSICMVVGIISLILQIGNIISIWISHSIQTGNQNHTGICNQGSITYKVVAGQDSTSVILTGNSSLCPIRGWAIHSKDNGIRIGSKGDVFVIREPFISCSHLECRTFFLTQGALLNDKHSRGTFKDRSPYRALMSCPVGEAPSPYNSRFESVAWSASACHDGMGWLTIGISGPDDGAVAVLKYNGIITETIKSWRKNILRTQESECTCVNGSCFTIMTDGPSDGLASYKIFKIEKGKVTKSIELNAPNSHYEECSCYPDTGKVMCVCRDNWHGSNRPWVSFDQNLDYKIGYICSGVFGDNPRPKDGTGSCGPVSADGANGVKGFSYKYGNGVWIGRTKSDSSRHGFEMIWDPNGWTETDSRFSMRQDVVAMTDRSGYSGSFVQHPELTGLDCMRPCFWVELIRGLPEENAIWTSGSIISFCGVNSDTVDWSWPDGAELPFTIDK
# [3] = molecular target: Neuraminidase (Influenza A virus) (UniProt B4URF0); experiment: Inhibition of Influenza A H1N1 virus neuraminidase at 40 uM after 1 hr by spectrofluorimetry using 2-(4-meythylumbelliferyl)-alpha-D-acetylneuramic acid as substrate
# [4] = molecular target: Neuraminidase (Influenza A virus) (UniProt B4URF0); experiment: Inhibition of Influenza A H1N1 virus neuraminidase at 8 uM after 1 hr by spectrofluorimetry using 2-(4-meythylumbelliferyl)-alpha-D-acetylneuramic acid as substrate
# [5] = molecular target: Neuraminidase (Influenza A virus) (UniProt B4URF0); experiment: Inhibition of Influenza A H1N1 virus neuraminidase at 1.6 uM after 1 hr by spectrofluorimetry using 2-(4-meythylumbelliferyl)-alpha-D-acetylneuramic acid as substrate
# [6] = Cytotoxicity against human L02 cells after 48 hrs by MTT assay; assay type: cell-based; details: L02, 48 h
# [7] = molecular target: Neuraminidase (Influenza A virus) (UniProt B4URF0); experiment: Inhibition of Influenza A H1N1 virus neuraminidase at 100 nM after 1 hr by spectrofluorimetry using 2-(4-meythylumbelliferyl)-alpha-D-acetylneuramic acid as substrate
# [8] = molecular target: Neuraminidase (Influenza A virus) (UniProt B4URF0); experiment: Inhibition of Influenza A H1N1 virus neuraminidase at 20 nM after 1 hr by spectrofluorimetry using 2-(4-meythylumbelliferyl)-alpha-D-acetylneuramic acid as substrate
# [9] = molecular target: Neuraminidase (Influenza A virus) (UniProt B4URF0); experiment: Inhibition of Influenza A H1N1 virus neuraminidase at 4 nM after 1 hr by spectrofluorimetry using 2-(4-meythylumbelliferyl)-alpha-D-acetylneuramic acid as substrate
# [10] = molecular target: Neuraminidase (Influenza A virus) (UniProt B4URF0); experiment: Inhibition of Influenza A H1N1 virus neuraminidase at 0.8 nM after 1 hr by spectrofluorimetry using 2-(4-meythylumbelliferyl)-alpha-D-acetylneuramic acid as substrate
# [11] = molecular target: Neuraminidase (Influenza A virus) (UniProt B4URF0); experiment: Inhibition of Influenza A H1N1 virus neuraminidase at 0.16 nM after 1 hr by spectrofluorimetry using 2-(4-meythylumbelliferyl)-alpha-D-acetylneuramic acid as substrate
# Neuraminidase, sequence (B4URF0 whole entry): as the sequence (B4URF0 as listed by the source) above
SMILES,pIC50 [1],also measured
CCOC(=O)C1C(=O)NC(NC(C)=O)=NC1c1ccccc1[N+](=O)[O-] (centres undefined),4.75,inhibition [2]: 82%; inhibition [3]: 53%; inhibition [4]: 25%; inhibition [5]: 8%; pIC50 [6]: < 2.00
CCOC(=O)C1C(=O)NC(NC(C)=O)=NC1c1ccc(Cl)cc1 (centres undefined),4.05,–
CCOC(=O)C1C(=O)NC(NC(C)=O)=NC1c1ccc(OC)c(OC)c1 (centres undefined),< 3.70,–
CCOC(=O)C1C(=O)NC(NC(C)=O)=NC1c1ccc(Cl)cc1Cl (centres undefined),4.55,inhibition [2]: 94%; inhibition [3]: 61%; inhibition [4]: 38%; inhibition [5]: 8%; pIC50 [6]: < 2.00
CCOC(=O)C1C(=O)NC(NC(C)=O)=NC1C(C)C (centres undefined),< 3.70,–
CCOC(=O)C1C(=O)NC(N)=NC1c1ccc(Cl)cc1 (centres undefined),3.96,–
CCOC(=O)C1C(=O)NC(NC(C)=O)=NC1c1ccc(Br)cc1F (centres undefined),4.53,inhibition [2]: 86%; inhibition [3]: 52%; inhibition [4]: 24%; inhibition [5]: 7%; pIC50 [6]: < 2.00
CCOC(=O)C1C(=O)NC(N)=NC1c1ccc(C)cc1 (centres undefined),< 3.70,–
CCOC(=O)C1C(=O)NC(N)=NC1c1ccccc1Cl (centres undefined),4.06,–
CCOC(=O)C1C(=O)NC(N)=NC1c1ccco1 (centres undefined),< 3.70,–
CCOC(=O)C1C(=O)NC(N)=NC1c1ccc(Br)cc1F (centres undefined),3.92,–
CCOC(=O)C1C(=O)NC(NC(C)=O)=NC1c1ccc(C)cc1 (centres undefined),3.78,–
CCOC(=O)C1C(=O)NC(N)=NC1c1ccc(OC)c(OC)c1 (centres undefined),< 3.70,–
CCOC(=O)C1C(=O)NC(NC(C)=O)=NC1c1ccc(N(C)C)cc1 (centres undefined),3.86,–
CCOC(=O)C1C(=O)NC(N)=NC1c1ccc(F)cc1 (centres undefined),3.84,–
CCOC(=O)C1C(=O)NC(N)=NC1c1ccccc1 (centres undefined),3.89,–
CCOC(=O)C1C(=O)NC(NC(C)=O)=NC1c1ccc(OC)cc1 (centres undefined),3.78,–
CCOC(=O)C1C(=O)NC(NC(C)=O)=NC1c1ccc(F)cc1 (centres undefined),4.02,–

SMILES,pIC50 [1],also measured
CCOC(=O)C1C(=O)NC(N)=NC1c1ccccc1F (centres undefined),4.05,–
CCOC(=O)C1C(=O)NC(N)=NC1c1ccc(OC)cc1 (centres undefined),< 3.70,–
CCOC(=O)C1C(=O)NC(N)=NC1c1ccc(Br)cc1 (centres undefined),3.90,–
CCOC(=O)C1C(=O)NC(NC(C)=O)=NC1c1ccco1 (centres undefined),< 3.70,–
CCOC(=O)C1C(=O)NC(NC(C)=O)=NC1c1ccccc1Cl (centres undefined),4.44,–
CCOC(=O)C1C(=O)NC(NC(C)=O)=NC1c1ccccc1 (centres undefined),4.24,–
CCOC(=O)C1C(=O)NC(N)=NC1c1ccc(Cl)cc1Cl (centres undefined),3.92,–
CCOC(=O)C1=C[C@@H](OC(CC)CC)[C@H](NC(C)=O)[C@@H](N)C1,–,inhibition [7]: 99%; inhibition [8]: 97%; inhibition [9]: 84%; inhibition [10]: 51%; inhibition [11]: 17%
CCOC(=O)C1C(=O)NC(NC(=O)CC)=NC1c1ccc(Br)cc1 (centres undefined),3.97,–
CCOC(=O)C1C(=O)NC(NC(=O)C(F)(F)F)=NC1c1ccc(Br)cc1 (centres undefined),4.16,–
CCOC(=O)C1C(=O)NC(NC(C)=O)=NC1c1ccccc1F (centres undefined),4.33,–
CCOC(=O)C1C(=O)NC(N)=NC1c1ccccc1[N+](=O)[O-] (centres undefined),4.12,–
CCOC(=O)C1C(=O)NC(N)=NC1C(C)C (centres undefined),< 3.70,–
CCOC(=O)C1C(=O)NC(NC(C)=O)=NC1c1ccc(Br)cc1 (centres undefined),4.15,–
CCOC(=O)C1C(=O)NC(N)=NC1c1ccc(N(C)C)cc1 (centres undefined),< 3.70,–
CCOC(=O)C1C(=O)NC(NC(C)=O)=NC1c1ccc([N+](=O)[O-])cc1 (centres undefined),3.84,–
CCOC(=O)C1C(=O)NC(N)=NC1c1ccc([N+](=O)[O-])cc1 (centres undefined),3.72,–
